Data as given in patent US20240342120A1, “MULTIPLE MYELOMA TREATMENT” (Vanda Pharmaceuticals Inc., priority 2013, published 2024).

Assays:
Type in all cases: cell-based
[1] = test system: CDC2; assay: Affymetrix gene expression, CDC2, cells treated 24 hours; settings: probe 203214_x_at; human retinal pigment epithelial cell line; 24 hours vs vehicle; Instance ID 10005533
Experimental: (§1) A human retinal pigment epithelial cell line was treated with trichostatin or vehicle for 24 hours and gene expression for 22,238 probe sets covering 12,490 genes was generated using an Affymetrix instrument.

[2] = test system: TOP2A; assay: Affymetrix gene expression, TOP2A, cells treated 24 hours; settings: human retinal pigment epithelial cell line, 24 hours vs vehicle
Experimental: as §1

[3] = test system: CCNB1, AURKB, CDC2, BIRC5, KIF11, KIF2C, TOP2A, ASPM, CKS1B, and WEE1; assay: Affymetrix gene expression, ten-gene summary, cells treated 24 hours; settings: human retinal pigment epithelial cell line; 24 hours vs vehicle; summary in words of Table 1
Experimental: as §1

CC(/C=C/C(=O)NO)=C\[C@@H](C)C(=O)c1ccc(N(C)C)cc1 [trichostatin A, 7-[4-(dimethylamino)phenyl]-N-hydroxy-4,6-dimethyl-7-oxohepta-2,4-dienamide]
Fold Expression Δ, CDC2 [1]: −11.83 Fold
Fold Expression Δ, TOP2A ([2]; probe 201291_s_at, Instance ID 10005533): −28.22 Fold
Fold Expression Δ, TOP2A ([2]; probe 201292_at, Instance ID 10005532): −31.95 Fold
effect on expression of CCNB1, AURKB, CDC2, BIRC5, KIF11, KIF2C, TOP2A, ASPM, CKS1B, and WEE1 [3]: significant downregulation
